We go through 10 compounds from patent publication US5643784A, “Indan derivatives” (H, Lundbeck A/S, priority 1990, dated 1997).

For one experiment, the system named is male albino BKW mice. Kind of experiment: Light/dark discrimination test in mice. The conditions noted are these: intraperitoneally 45 min before testing, doses from 0.01 to 1 mg/kg. The format is in vivo, mouse. As for the experimental part:
LIGHT/DARK DISCRIMATION TEST IN MICE
This test was carried out in accordance with the method described in Costall et al. Br. J. Pharmacol. 90 275P (1987).
The test was conducted using a two compartment activity box in which the actions of anxiolytic compounds to reduce aversion against a brightly-lit environment may be readily detected. The box is designed as an open-top experimental box (45*27*27 cm) one third of which was partitioned from the rest, painted black and illuminated with red light. The remainder of the box was painted white and brightly illuminated (1000 W). The floor of each area was lined into squares. Behavioral changes were determined for each area from video recordings for periods of 40 min.
Data obtained from dose groups of 5 animals (male albino BKW mice, 25-30 g) were analysed using single factor analysis of variance, and Dunnett's t-test. Test compounds were given intraperitoneally 45 min before testing.

The next experiment has as its target α1 adrenoceptors. Nature of the experiment: Inhibition of 3H-prazosin binding to α1 adrenoceptors in rat brain in vitro. The conditions noted are these: 3H-Prazosin 0.25 nM, rat brain, 25° C., 20 min; read-out: Receptor Binding; IC50 α1 3H-Praz.
The test system of another experiment is Wistar WU rats. Nature of the experiment: Light/dark discrimination test in rats. The format is in vivo, rat. The conditions noted are these: doses from 0.1 to 1 mg/kg. As to the method: LIGHT/DARK DISCRIMINATION TEST IN RATS
The test was carried out similarly to the test in mice described above, however modified in accordance with F. C. Colpaert et al., Psychopharmacology (1985) 86:45-54. The test used Wistar WU rats.

Another experiment concerns the target T1, 5-HT2 receptors (Rattus norvegicus, UniProt P14842).
T1 construct: cortical tissue is dissected and weighed; from tissue; host or cells: cortex of male Wistar rats, crude membranes
Nature of the experiment: Inhibition of 3H-ketanserin binding to 5-HT2 receptors in rat cortex in vitro. The conditions noted are these: 3H-Ketanserin 0.5 nM, rat cortex, 37° C., 30 min; read-out: Receptor Binding; IC50 5-HT2 3H-Ket.

The target of the next experiment is T2, dopamine D-2 receptors (Rattus norvegicus, UniProt P61169).
T2 construct: striatal tissue is dissected and weighed; from tissue; host or cells: corpus striatum of male Wistar rats, crude membranes
T2 sequence (P61169 whole entry): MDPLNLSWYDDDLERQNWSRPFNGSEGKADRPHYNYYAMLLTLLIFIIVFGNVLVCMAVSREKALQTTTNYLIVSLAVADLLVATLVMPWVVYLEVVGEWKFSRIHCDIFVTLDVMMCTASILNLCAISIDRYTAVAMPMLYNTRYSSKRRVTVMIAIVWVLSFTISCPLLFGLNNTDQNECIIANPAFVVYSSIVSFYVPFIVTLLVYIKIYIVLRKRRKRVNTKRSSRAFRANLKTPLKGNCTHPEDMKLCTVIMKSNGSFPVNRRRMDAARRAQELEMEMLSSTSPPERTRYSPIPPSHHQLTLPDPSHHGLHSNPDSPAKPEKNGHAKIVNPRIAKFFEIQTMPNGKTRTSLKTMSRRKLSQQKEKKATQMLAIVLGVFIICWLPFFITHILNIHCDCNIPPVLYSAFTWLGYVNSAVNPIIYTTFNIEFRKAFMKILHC
Kind of experiment: Inhibition of 3H-spiperone binding to dopamine D-2 receptors in rat corpus striatum in vitro. The conditions noted are these: 3H-spiperone 0.5 nM, rat corpus striatum, 37° C., 10 min; read-out: Receptor Binding; IC50 DA D-2 3H-Spi. As for the experimental part:
INHIBITION OF ^3 H-SPIPERONE BINDING TO DOPAMINE D-2 RECEPTORS IN RAT CORPUS STRIATUM IN VITRO
By this method the inhibition by drugs of the binding of ^3 H-spiperone (0.5 nM) to dopamine D-2 receptors in membranes from rat corpus striatum is determined in vitro.
Male Wistar (Mol:Wistar) rats (125-250 g) are sacrificed and striatal tissue is dissected and weighed. The tissue is homogenized (Ultra Turrax, 10 sec.) in 10 ml of ice-cold 50 mM K-phosphate buffer pH 7.4 (at 25° C.). The homogenate is centrifuged twice at 20,000 g for 10 min. at 4° C. with rehomogenization of the pellet in 10 ml ice-cold buffer. The final pellet is homogenized in 1300 vol (w/v) ice-cold buffer.
Incubation tubes kept on ice in triplicate receive 100 μl of drug solution in water (or water for total binding) and 4000 μl of tissue suspension (final tissue content corresponds to 3.08 mg original tissue). The binding experimental is initiated by addition of 100 μl of ^3 H-spiperone (final concentration 0.5 nM) and by placing the tubes in a 37° C. water bath. After incubation for 10 min. the samples are filtered under vacuum (0-50 mBar) through Whatman GF/F filters (25 mm). The tubes are rinsed with 5 ml ice-cold buffer which are then poured on the filters. Thereafter, the filters are washed with 2×5 ml of buffer. The filters are placed in counting vials and 4 ml of appropriate scintillation fluid (e.g. Picofluor ™15) are added. After shaking for 1 h and storage 2 hrs in the dark the content of radioactivity is determined by liquid scintillation counting. Specific binding is obtained by subtracting the nonspecific binding in the presence of 10 μM of 6,7-ADTN.
For determination of the inhibition of binding five concentrations of drugs covering 3 decades are used.
^3 H-Spiperone=[phenyl-4-^3 H]-spiperone from Amersham International plc. England, specific activity 15-25 Ci/mmol.

The conditions of experiment [1]: Meert and Janssen, Drug Dev. Res. 1989, 18, 119; cited from earlier work.

T1 sequence (P14842 whole entry): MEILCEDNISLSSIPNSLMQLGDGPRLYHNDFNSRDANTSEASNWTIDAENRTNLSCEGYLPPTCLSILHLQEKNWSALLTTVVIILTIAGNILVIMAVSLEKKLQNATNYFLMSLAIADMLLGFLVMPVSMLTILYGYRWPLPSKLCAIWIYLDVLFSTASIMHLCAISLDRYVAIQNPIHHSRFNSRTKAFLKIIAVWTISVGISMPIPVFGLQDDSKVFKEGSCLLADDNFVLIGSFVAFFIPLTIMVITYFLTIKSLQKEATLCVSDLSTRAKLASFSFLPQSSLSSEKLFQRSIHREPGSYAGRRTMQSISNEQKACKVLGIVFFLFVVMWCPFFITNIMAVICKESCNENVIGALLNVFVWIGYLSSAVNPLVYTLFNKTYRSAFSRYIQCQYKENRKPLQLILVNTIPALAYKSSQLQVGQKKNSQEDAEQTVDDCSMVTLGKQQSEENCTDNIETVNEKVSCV

Consider `O=C1NCCCN1CCN1CCN([C@@H]2C[C@@H](c3ccc(F)cc3)c3cc(F)ccc32)CC1` (single isomer, unassigned) [(+)-33, (+)-Trans-1-[2-[4-[5-fluoro-3-(4-fluorophenyl)-2,3-dihydro-1H-inden-1-yl]piperazin-1-yl]ethyl]-tetrahydro-2(1H)-pyrimidinone], for which the values for the anxiolytic activity entry with male albino BKW mice and in the experiment with Wistar WU rats were “significant anxiolytic activity (p<0.05) in doses from 0.01 to 1 mg/kg” and “significant anxiolytic activity (p<0.05) in doses from 0.1 to 1 mg/kg”, respectively. The IC50 at α1 adrenoceptors was 41 nM; on 5-HT2 receptors, 1.1 nM.

With `CC(C)N1CCN(CCN2CCN([C@@H]3C[C@@H](c4ccc(Cl)cc4)c4cc(Cl)ccc43)CC2)C1=O` (relative stereo) [Compound 27, Trans-1-[2-[4-[5-chloro-3-(4-chlorophenyl)-2,3-dihydro-1H-inden-1-yl]piperazin-1-yl]ethyl]-3-isopropyl-2-imidazolidinone], the results for the IC50 on dopamine D-2 receptors, at α1 adrenoceptors and at 5-HT2 receptors were 280 nM, 180 nM and 15 nM, respectively.

For the compound `Cc1ccc2c(c1)[C@H](c1ccc(F)cc1)C[C@H]2N1CCN(CCN2CCNC2=O)CC1` (relative stereo) [Compound 9, Trans-1-[2-[4-[3-(4-fluorophenyl)-5-methyl-2,3-dihydro-1H-inden-1-yl]piperazine-1-yl]ethyl]-2-imidazolidinone], the results for the IC50 on dopamine D-2 receptors, at α1 adrenoceptors and at 5-HT2 receptors were 370 nM, 220 nM and 3.7 nM, respectively.

With `O=C1N(CCN2CCN([C@@H]3C[C@@H](c4ccc(F)cc4)c4cc(Cl)ccc43)CC2)CCN1c1ccccc1` (relative stereo) [Compound 17, Trans-1-[2-[4-[5-chloro-3-(4-fluorophenyl)-2,3-dihydro-1H-inden-1-yl]piperazin-1-yl]ethyl]-3-phenyl-2-imidazolidinone], the IC50 was 300 nM on dopamine D-2 receptors, 310 nM on α1 adrenoceptors and 44 nM on 5-HT2 receptors.

`Cc1nc2sccn2c(=O)c1CCN1CCC(=C(c2ccc(F)cc2)c2ccc(F)cc2)CC1` [Ritanserin, reference compound]: the IC50 at dopamine D-2 receptors stood at 12 nM; at α1 adrenoceptors, 47 nM. Besides, the “effect in the treatment of anxiety and depression” value in experiment [1] is “effective in the treatment of anxiety and depression”.

For the compound `Fc1ccc([C@@H]2C[C@@H](N3CCN(CCN4CCNC4=S)CC3)c3ccc(Cl)cc32)cc1` (relative stereo) [Compound 31, Trans-1-[2-[4-[5-chloro-3-(4-fluorophenyl)-2,3-dihydro-1H-inden-1-yl]piperazin-1-yl]ethyl]-2-imidazolidinthione], the IC50 at dopamine D-2 receptors is 67 nM; on α1 adrenoceptors it was 52 nM; on 5-HT2 receptors it was 1.5 nM.

In the case of `Fc1ccc([C@@H]2C[C@@H](N3CCN(CCN4CCCNC4=S)CC3)c3ccc(Cl)cc32)cc1` (single isomer, unassigned) [(-)-32, (-)-Trans-1-[2-[4-[5-chloro-3-(4-fluorophenyl)-2,3-dihydro-1H-inden-1-yl]piperazin-1-yl]ethyl]-tetrahydro-2(1H)-pyrimidinethione], the anxiolytic activity entry is “significant anxiolytic activity (p<0.05) in doses from 0.01 to 1 mg/kg” in the experiment on male albino BKW mice and “significant anxiolytic activity (p<0.05) in doses from 0.1 to 1 mg/kg” with Wistar WU rats. Besides, the results for the IC50 on α1 adrenoceptors and on 5-HT2 receptors were 67 nM and 0.75 nM, respectively.

Regarding `Fc1ccc([C@@H]2C[C@@H](N3CCN(CCN4CCCNC4=S)CC3)c3ccc(F)cc32)cc1` (single isomer, unassigned) [(+)-30, (+)-Trans-1-[2-[4-[5-fluoro-3-(4-fluorophenyl)-2,3-dihydro-1H-inden-1-yl]piperazin-1-yl]ethyl]-tetrahydro-2(1H)-pyrimidinethione], in the experiment with male albino BKW mice, the anxiolytic activity result is “significant anxiolytic activity (p<0.05) in doses from 0.01 to 1 mg/kg”. The IC50 stood at 43 nM at α1 adrenoceptors and 0.95 nM at 5-HT2 receptors.

`Fc1ccc([C@H]2C[C@H](N3CCNCC3)c3ccc(Cl)cc32)cc1` (single isomer, unassigned) [(-)-10]: the IC50 was found to be 730 nM at dopamine D-2 receptors, 390 nM on α1 adrenoceptors and 15 nM on 5-HT2 receptors.

In the case of `Cc1cc([C@@H]2C[C@@H](N3CCN(CCO)CC3)c3ccc(Cl)cc32)cs1` (relative stereo) [Compound 6, Trans-4-[5-chloro-3-(2-methyl-4-thienyl)-2,3-dihydro-1H-inden-1-yl]-1-piperazineethanol], the results for the IC50 at dopamine D-2 receptors, at α1 adrenoceptors and at 5-HT2 receptors were 2600 nM, 1000 nM and 56 nM, respectively.
